Where two headings read alike, the source gives them in different places.
Columns and labels:
Mouse Liver [1] = conditions: ref ToxRefDB, cited from earlier work
Mouse Liver [2] = conditions: ref ToxRefDB, cited from earlier work; remark: listed apart in the source
Mouse Liver [3] = conditions: ref ToxRefDB, cited from earlier work; remark: listed apart in the source
Rat Liver [4] = conditions: ref ToxRefDB, cited from earlier work
Rat Liver [5] = conditions: ref ToxRefDB, cited from earlier work; remark: listed apart in the source
Rat Liver [6] = conditions: ref ToxRefDB, cited from earlier work; remark: listed apart in the source
CYP2B6 = test: CLZD_CYP2B6: Change in expression of CYP2B6 (primary human hepatocytes); assay type: cell-based; conditions: 24 hr
Protocol: (§1) This is a collection of multiplexed gene expression assays focused on Phase I and II xenobiotic metabolizing enzymes and transporters. Human primary cell cultures were treated with chemicals at 5 concentrations (0.004-40 [drawing 42] M) for 6, 24 and 48 hr. Concentration- and time-response profiles of chemicals were measured by the expression of key nuclear receptor target genes, activities of CYP1A enzymes (EROD), and cell morphology. Fourteen gene targets were monitored by quantitative nuclease protection assay including: six representative cytochrome P-450 genes, four hepatic transporters, three Phase II conjugating enzymes, and one endogenous metabolism gene involved in cholesterol synthesis. The target genes associated with nuclear receptor pathways are as follows: [drawing 43] and [drawing 44] with [drawing 45]; [drawing 46] , [drawing 47] , [drawing 48] , [drawing 49] , [drawing 50] and [drawing 51] with [drawing 52]; [drawing 53] , [drawing 54] , [drawing 55] and [drawing 56] with [drawing 57]; [drawing 58] with [drawing 59]; and [drawing 60] with [drawing 61] . Assays were run in primary human hepatocyte cultures by CellzDirect Invitrogen Inc. (Durham, NC), in collaboration with EPA.
(§2) Multiplexed Gene Expression in Human Primary Hepatocytes: This is a collection of multiplexed gene expression assays focused on Phase I and II metabolic enzymes and transporters. […] Fourteen gene targets were monitored by quantitative nuclease protection assay: six representative cytochrome P450 genes, four hepatic transporters, three Phase II conjugating enzymes, and one endogenous metabolism gene involved in cholesterol synthesis. Cells were exposed at 5 concentrations (0.004-40 µM) for 6, 24 or 48 hr. Gene targets are sentinels for five nuclear receptor signaling pathways: AhR, CAR, PXR, FXR, and PPARα. All gene are associated with nuclear receptor pathways: CYP1A1 and CYP1A2 with AHR; ABCB1, ABCG2, CYP2B6, CYP2C9, CYP2C19 and UGT1A1 with CAR; CYP3A4, GSTA2, SLCO1B1 and SULT2A1 with PXR; HMGCS2 with PPARA; and ABCB11 with FXR. […] Detailed description of the methods, data and analysis methods for this dataset will be presented in a separate publication.

PXR (NR1I2) = biological target: T1, PXR (NR1I2) (Homo sapiens, UniProt O75469); test: ATG_PXRE_CIS: Factorial reporter gene assay (HepG2); assay type: cell-based; set-up: endogenous in cells; host or cells: HepG2; conditions: HepG2
T1 sequence (O75469 1-434): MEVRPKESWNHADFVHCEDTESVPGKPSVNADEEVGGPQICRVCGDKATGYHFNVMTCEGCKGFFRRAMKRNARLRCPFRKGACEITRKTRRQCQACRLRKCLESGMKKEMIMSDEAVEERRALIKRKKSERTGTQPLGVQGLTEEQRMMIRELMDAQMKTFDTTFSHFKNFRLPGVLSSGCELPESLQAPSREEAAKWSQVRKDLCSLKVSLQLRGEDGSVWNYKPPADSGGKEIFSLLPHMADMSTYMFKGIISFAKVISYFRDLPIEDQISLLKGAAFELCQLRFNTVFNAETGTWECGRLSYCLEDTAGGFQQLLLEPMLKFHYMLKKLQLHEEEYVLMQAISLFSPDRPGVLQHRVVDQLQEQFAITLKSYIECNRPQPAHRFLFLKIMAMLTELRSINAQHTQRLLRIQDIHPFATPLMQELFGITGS
Method in brief: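 Seven concentrations per chemical, three-fold dilutions down from the MTC, were tested in HepG2 hepatoma cells. Those cells carried a multiple reporter transcription unit library, read either as cis transcription-factor-site reporters or as a trans mammalian one-hybrid panel for nuclear receptors.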

CYP3A4 = test: CLZD_CYP3A4: Change in expression of CYP3A4 (primary human hepatocytes); assay type: cell-based; conditions: 24 hr
Protocol: as §1, §2

[7] = mouse chronic study, liver, any lesion, coded 6 / Inf, code not explained in the table
[8] = mouse chronic study, liver, preneoplastic lesion, coded 6 / Inf, code not explained in the table
[9] = mouse chronic study, liver, neoplastic lesion, coded 6 / Inf, code not explained in the table
[10] = rat chronic study, liver, any lesion, coded 6 / 0, code not explained in the table
[11] = rat chronic study, liver, preneoplastic lesion, coded 6 / 0, code not explained in the table
[12] = rat chronic study, liver, neoplastic lesion, coded 6 / 0, code not explained in the table
[13] = mouse chronic study, liver, coded 6 / Inf, code not explained in table
[14] = rat chronic study, liver, coded 6 / 0, code not explained in table

CCCOC(=O)c1ccc(C(=O)OCCC)nc1 [Dataset S3 row 4]
CHR_Mouse_Liver_1_AnyLesion (Mouse Liver [1]; [7]): 6
CHR_Mouse_Liver_2_PreneoplasticLesion (Mouse Liver [2]; [8]): 6
CHR_Mouse_Liver_3_NeoplasticLesion (Mouse Liver [3]; [9]): 6
CHR_Rat_Liver_1_AnyLesion (Rat Liver [4]; [10]): 6
CHR_Rat_Liver_2_PreneoplasticLesion (Rat Liver [5]; [11]): 6
CHR_Rat_Liver_3_NeoplasticLesion (Rat Liver [6]; [12]): 6

CCCCNC(=O)OCC#CI [Dataset S3 row 6]
CHR_Mouse_Liver_1_AnyLesion (Mouse Liver [1]; [7]): 6
CHR_Mouse_Liver_2_PreneoplasticLesion (Mouse Liver [2]; [8]): 6
CHR_Mouse_Liver_3_NeoplasticLesion (Mouse Liver [3]; [9]): 6
CHR_Rat_Liver_1_AnyLesion (Rat Liver [4]; [10]): 6
CHR_Rat_Liver_2_PreneoplasticLesion (Rat Liver [5]; [11]): 0
CHR_Rat_Liver_3_NeoplasticLesion (Rat Liver [6]; [12]): 0

CCCCNC(=O)OCC#CI [Dataset S3 row 7]
CHR_Mouse_Liver_1_AnyLesion (Mouse Liver [1]; [7]): 6
CHR_Mouse_Liver_2_PreneoplasticLesion (Mouse Liver [2]; [8]): 6
CHR_Mouse_Liver_3_NeoplasticLesion (Mouse Liver [3]; [9]): 6
CHR_Rat_Liver_1_AnyLesion (Rat Liver [4]; [10]): 6
CHR_Rat_Liver_2_PreneoplasticLesion (Rat Liver [5]; [11]): 0
CHR_Rat_Liver_3_NeoplasticLesion (Rat Liver [6]; [12]): 0

Cc1ccc(/N=C/N(C)/C=N/c2ccc(C)cc2C)c(C)c1 [Dataset S3 row 18]
CHR_Mouse_Liver_1_AnyLesion (Mouse Liver [1]; [7]): 6
CHR_Mouse_Liver_2_PreneoplasticLesion (Mouse Liver [2]; [8]): 6
CHR_Mouse_Liver_3_NeoplasticLesion (Mouse Liver [3]; [9]): 6
CHR_Rat_Liver_1_AnyLesion (Rat Liver [4]; [10]): 0
CHR_Rat_Liver_2_PreneoplasticLesion (Rat Liver [5]; [11]): 0
CHR_Rat_Liver_3_NeoplasticLesion (Rat Liver [6]; [12]): 0

CN1COCN(Cc2cnc(Cl)s2)/C1=N\[N+](=O)[O-] [chemical 296]
CHR_Mouse_Liver_1_AnyLesion (Mouse Liver [1]; [13]): 6
CHR_Mouse_Liver_2_PreneoplasticLesion (Mouse Liver [2]; [13]): 6
CHR_Mouse_Liver_3_NeoplasticLesion (Mouse Liver [3]; [13]): 6
CHR_Rat_Liver_1_AnyLesion (Rat Liver [4]; [14]): 6
CHR_Rat_Liver_2_PreneoplasticLesion (Rat Liver [5]; [14]): 0
CHR_Rat_Liver_3_NeoplasticLesion (Rat Liver [6]; [14]): 0

CS/C(C)=N/OC(=O)N(C)SN(C)C(=O)O/N=C(\C)SC [chemical 300]
CHR_Mouse_Liver_1_AnyLesion (Mouse Liver [1]; [13]): 6
CHR_Mouse_Liver_2_PreneoplasticLesion (Mouse Liver [2]; [13]): 6
CHR_Mouse_Liver_3_NeoplasticLesion (Mouse Liver [3]; [13]): 6
CHR_Rat_Liver_1_AnyLesion (Rat Liver [4]; [14]): 0
CHR_Rat_Liver_2_PreneoplasticLesion (Rat Liver [5]; [14]): 0
CHR_Rat_Liver_3_NeoplasticLesion (Rat Liver [6]; [14]): 0

CC(C)(C)C(=O)C(Oc1ccc(Cl)cc1)n1cncn1 (stereo not drawn) [chemical 304]
CHR_Mouse_Liver_1_AnyLesion (Mouse Liver [1]; [13]): 6
CHR_Mouse_Liver_2_PreneoplasticLesion (Mouse Liver [2]; [13]): 6
CHR_Mouse_Liver_3_NeoplasticLesion (Mouse Liver [3]; [13]): 6
CHR_Rat_Liver_1_AnyLesion (Rat Liver [4]; [14]): 6
CHR_Rat_Liver_2_PreneoplasticLesion (Rat Liver [5]; [14]): 0
CHR_Rat_Liver_3_NeoplasticLesion (Rat Liver [6]; [14]): 0

CC(C)(C)C(O)C(Oc1ccc(Cl)cc1)n1cncn1 (stereo not drawn) [chemical 305]
CHR_Mouse_Liver_1_AnyLesion (Mouse Liver [1]; [13]): 6
CHR_Mouse_Liver_2_PreneoplasticLesion (Mouse Liver [2]; [13]): 6
CHR_Mouse_Liver_3_NeoplasticLesion (Mouse Liver [3]; [13]): 6
CHR_Rat_Liver_1_AnyLesion (Rat Liver [4]; [14]): 0
CHR_Rat_Liver_2_PreneoplasticLesion (Rat Liver [5]; [14]): 0
CHR_Rat_Liver_3_NeoplasticLesion (Rat Liver [6]; [14]): 0

COC(=O)c1cccc(C)c1S(=O)(=O)NC(=O)Nc1nc(OCC(F)(F)F)nc(N(C)C)n1 [chemical 317]
CHR_Mouse_Liver_1_AnyLesion (Mouse Liver [1]; [13]): 6
CHR_Mouse_Liver_2_PreneoplasticLesion (Mouse Liver [2]; [13]): 6
CHR_Mouse_Liver_3_NeoplasticLesion (Mouse Liver [3]; [13]): 6
CHR_Rat_Liver_1_AnyLesion (Rat Liver [4]; [14]): 0
CHR_Rat_Liver_2_PreneoplasticLesion (Rat Liver [5]; [14]): 0
CHR_Rat_Liver_3_NeoplasticLesion (Rat Liver [6]; [14]): 0

C=CC1(C)OC(=O)N(c2cc(Cl)cc(Cl)c2)C1=O (stereo not drawn) [chemical 319]
CHR_Mouse_Liver_1_AnyLesion (Mouse Liver [1]; [13]): 6
CHR_Mouse_Liver_2_PreneoplasticLesion (Mouse Liver [2]; [13]): 6
CHR_Mouse_Liver_3_NeoplasticLesion (Mouse Liver [3]; [13]): 6
CHR_Rat_Liver_1_AnyLesion (Rat Liver [4]; [14]): 6
CHR_Rat_Liver_2_PreneoplasticLesion (Rat Liver [5]; [14]): 6
CHR_Rat_Liver_3_NeoplasticLesion (Rat Liver [6]; [14]): 6

COC(=O)c1ccccc1S(=O)(=O)NC(=O)Nc1nc(OC(F)F)cc(OC(F)F)n1 [r250]
CLZD_CYP2B6_24 (CYP2B6): 5.187
CHR_Mouse_Liver_1_AnyLesion (Mouse Liver [1]; mouse, chronic study): 6
CHR_Mouse_Liver_2_PreneoplasticLesion (Mouse Liver [2]; mouse, chronic study): 6
CHR_Mouse_Liver_3_NeoplasticLesion (Mouse Liver [3]; mouse, chronic study): 6
CHR_Rat_Liver_1_AnyLesion (Rat Liver [4]; rat, chronic study): 0
CHR_Rat_Liver_2_PreneoplasticLesion (Rat Liver [5]; rat, chronic study): 0
CHR_Rat_Liver_3_NeoplasticLesion (Rat Liver [6]; rat, chronic study): 0
ATG_PXRE_CIS (PXR (NR1I2)): 4.469

CNC(=O)Oc1ccccc1OC(C)C [r263]
CLZD_CYP2B6_24 (CYP2B6): 5.434
CLZD_CYP3A4_24 (CYP3A4): 5.055
CHR_Mouse_Liver_1_AnyLesion (Mouse Liver [1]; mouse, chronic study): 6
CHR_Mouse_Liver_2_PreneoplasticLesion (Mouse Liver [2]; mouse, chronic study): 6
CHR_Mouse_Liver_3_NeoplasticLesion (Mouse Liver [3]; mouse, chronic study): 6
CHR_Rat_Liver_1_AnyLesion (Rat Liver [4]; rat, chronic study): 0
CHR_Rat_Liver_2_PreneoplasticLesion (Rat Liver [5]; rat, chronic study): 0
CHR_Rat_Liver_3_NeoplasticLesion (Rat Liver [6]; rat, chronic study): 0

CC1=NNC(=O)N(/N=C/c2cccnc2)C1 [r269]
CHR_Mouse_Liver_1_AnyLesion (Mouse Liver [1]; chronic study, mouse liver): 6
CHR_Mouse_Liver_2_PreneoplasticLesion (Mouse Liver [2]; chronic study, mouse liver): 6
CHR_Mouse_Liver_3_NeoplasticLesion (Mouse Liver [3]; chronic study, mouse liver): 6
CHR_Rat_Liver_1_AnyLesion (Rat Liver [4]; chronic study, rat liver): 6
CHR_Rat_Liver_2_PreneoplasticLesion (Rat Liver [5]; chronic study, rat liver): 6
CHR_Rat_Liver_3_NeoplasticLesion (Rat Liver [6]; chronic study, rat liver): 6

Clc1cccc(C(Cl)(Cl)Cl)n1 [row 221]
CLZD_CYP2B6_24 (CYP2B6): 5.088
CHR_Mouse_Liver_1_AnyLesion (Mouse Liver [1]; chronic mouse study, liver): 6
CHR_Mouse_Liver_2_PreneoplasticLesion (Mouse Liver [2]; chronic mouse study, liver): 6
CHR_Mouse_Liver_3_NeoplasticLesion (Mouse Liver [3]; chronic mouse study, liver): 6
CHR_Rat_Liver_1_AnyLesion (Rat Liver [4]; chronic rat study, liver): 6
CHR_Rat_Liver_2_PreneoplasticLesion (Rat Liver [5]; chronic rat study, liver): 0
CHR_Rat_Liver_3_NeoplasticLesion (Rat Liver [6]; chronic rat study, liver): 0
ATG_PXRE_CIS (PXR (NR1I2)): 4.292
